In patent US20020091086A1, “Peptides that block viral infectivity and methods of use thereof” (priority 1999, published 2002):
Read-outs that look alike come from different tables or passages of the source. Peptide text beside a SMILES is read from it.

Columns and labels:
HIV-1 [1] = details: H9 cells; for Day 10 RT HIV-1 (1:5): supernatant diluted 5-fold; for HIV-1 infection, result in words: summary of Experiments 1-5
Source text: In this example, the methods that were used to analyze the ability of various tripeptides to inhibit HIV-1, HIV-2, and SIV replication are disclosed. In Experiments 1 and 2, approximately 200,000 H9 cells were infected with HIV-1, HIV-2 or SIV at 25 TCID50 to test the inhibitory effect of the following synthesized tripeptides LKA-NH2, ILK-NH2, GPQ-NH2, GHK-NH2, GKG-NH2, ACQ-NH2, CQG-NH2, ARV-NH2, KAR-NH2, HKA-NH2, GAT-NH2, KAL-NH2, and GPG-NH2. Accordingly, the H9 cells were resuspended with or without the different peptides (approximately 100 μM) in 1 ml of RPMI 1640 medium supplemented with 10% (v/v) heat-inactivated fetal bovine serum (FBS), penicillin (100 u/ml), and streptomycin (100 u/ml), all available through GIBCO, and Polybrene (2 μg/ml), available through Sigma. Thereafter, viruses were added at 25 TCID50 in a volume of 20-30μl. Cells were incubated with virus at 37° C. for 1 hr then pelleted at 170×g for 7 minutes. The cells were then washed three times in RPMI medium without peptides at room temperature and pelleted at 170×g for 7 minutes, as above. After the final wash, the cells were resuspended in RPMI culture medium containing the peptides in a 24-well plate (Costar corporation) and were kept at 37° C. in 5% CO2 with humidity.
Culture supernatants were collected and analyzed when the medium was changed at 4, 7, 10, and 14 days post infection. To monitor the replication of virus, reverse transcriptase (RT) activity in the supernatants was assayed using a commercially available Lenti-RT activity kit. (Cavidi Tech, Uppsala, Sweden). The amount of RT was determined with the aid of a regression line of standards. The results are presented as absorbance values (OD) and higher absorbance indicates a higher protein concentration and greater viral infection. Syncytium formation was also monitored by microscopic examination.
(§1) In Experiment 3, (Table 4), approximately 200,000 H9 cells were infected with HIV-1, HIV-2 or SIV at 25 TCID50 to test the inhibitory effect of different concentrations of peptides GPG-NH2, GKG-NH2 and CQG-NH2 and combinations of these peptides (the indicated concentration corresponds to the concentration of each tripeptide). As above, H9 cells were resuspended with or without the different peptides at varying concentrations in 1 ml of RPMI 1640 medium supplemented with 10% (v/v) heat-inactivated fetal bovine serum (FBS), penicillin (100 u/ml), and streptomycin (100 u/ml), and Polybrene (2 μg/ml). Thereafter, viruses were added at 25 TCID50 in a volume of 20-30 μl. Cells were incubated with the indicated virus at 37° C. for 1 hr then pelleted at 170×g for 7 minutes. The cells were then washed three times in RPMI medium without peptides at room temperature and pelleted at 170×g for 7 minutes, as above. After the final wash, the cells were resuspended in RPMI culture medium containing the peptides in a 24-well plate (Costar corporation) and kept at 37° C. in 5% CO2 with humidity.
Culture supernatants were collected when the medium was changed at 4, 7, and 11 days post infection. As above, the replication of each virus was monitored by detecting reverse transcriptase (RT) activity in the supernatants using the Lenti-RT activity kit. (Cavidi Tech). The amount of RT was determined with the aid of a regression line of standards. The results are presented as absorbance values (OD) and higher absorbance indicates a higher protein concentration and greater viral infection.
In Experiment 4, (Table 5) approximately 200,000 H9 cells were infected with HIV-1 at 25 TCID50 to test the inhibitory effect of different concentrations of peptides GPG-NH2, GKG-NH2 and CQG-NH2 and combinations of these peptides (the indicated concentration corresponds to the total concentration of tripeptide).

HIV-1 [2] = details: for p24 / p24 (OD) / reduction (%): Experiment 5, H9 cells
Experimental: as §1, with “In Experiment 5, (Table 6)” for “In Experiment 3, (Table 4),”, “5, (Table 6) approximately 200,000” for “3, (Table 4), approximately 200,000”, “infected with HIV-1 at 25” for “infected with HIV-1, HIV-2 or SIV at 25”, “of these peptides. As above,” for “of these peptides (the indicated concentration corresponds to the concentration of each tripeptide). As above,”, “(100 u/ml), streptomycin (100” for “(100 u/ml), and streptomycin (100”
Culture supernatants were collected when the medium was changed at 4, 7, and 14 days post infection. The replication of each virus was monitored by detecting the presence of p24 in the supernatants. HIV p24 antigen was determined using a commercially available HIV p24 antigen detection kit (Abbott). The results are presented as absorbance values (OD) and higher absorbance indicates a higher protein concentration and greater viral infection. In some cases, serial dilutions of the supernatants were made so as to more accurately detect p24 concentration.
The percent reduction tabulated in Table 6 was calculated by dividing amount of p24 antigen detected in the peptide-treated sample by the amount of p24 antigen detected in the control sample, multiplying this dividend by 100 to obtain a percentage, and subtracting the dividend percentage by 100%.

[3] = Experiment 3, 5 μM (of each tripeptide)
[4] = Experiment 3, 20 μM (of each tripeptide)
[5] = Experiment 4, 5 μM (total concentration of tripeptide)
[6] = Experiment 4, 15 μM (total concentration of tripeptide)

Row | Compound | Day 7 RT HIV-1 (HIV-1 [1]; Experiment 1, 100 μM) [OD] | Day 10 RT HIV-1 (HIV-1 [1]; Experiment 1, 100 μM) [OD] | Day 7 RT HIV-1 (HIV-1 [1]; Experiment 2, 100 μM) [OD] | Day 10 RT HIV-1 (HIV-1 [1]; Experiment 2, 100 μM) [OD] | Day 7 RT HIV-1 (HIV-1 [1]; [3]) [OD] | Day 10 RT HIV-1 (HIV-1 [1]; [3]) [OD] | Day 7 RT HIV-1 (HIV-1 [1]; [4]) [OD] | Day 10 RT HIV-1 (HIV-1 [1]; [4]) [OD] | Day 7 RT HIV-1 (HIV-1 [1]; [5]) [OD] | Day 10 RT HIV-1 (1:5) (HIV-1 [1]; [5]) [OD] | Day 7 RT HIV-1 (HIV-1 [1]; [6]) [OD] | Day 10 RT HIV-1 (1:5) (HIV-1 [1]; [6]) [OD] | Day 7 RT HIV-1 (HIV-1 [1]; Experiment 4, 45 μM) [OD] | Day 10 RT HIV-1 (1:5) (HIV-1 [1]; Experiment 4, 45 μM) [OD] | HIV-1 infection, result in words (HIV-1 [1]) | p24 (HIV-1 [2]; Day 7 HIV-1, 100 μM) [pg/mL] | p24 (OD) (HIV-1 [2]; Day 7 HIV-1, 100 μM) | reduction (%) (HIV-1 [2]; Day 7 HIV-1, 100 μM) | p24 (HIV-1 [2]; Day 7 HIV-1, 300 μM) [pg/mL] | p24 (OD) (HIV-1 [2]; Day 7 HIV-1, 300 μM) | other results
1 | NCCCC[C@H](NC(=O)CN)C(=O)NCC(N)=O [GKG-NH2, glycyl-lysyl-glycine amide] (H-Gly-Lys-Gly-NH2) | 0.080 | 0.074 | 0.145 | 0.345 | 1.587 | 1.683 | 1.616 | 2.036 | 3.303 | 1.287 | 3.551 | 1.530 | 3.126 | 0.410 | inhibited and/or prevented HIV-1 infection | 1830 | 0.566 × 10^1 OD | 95 | 388 | 1.08 | Day 7 RT HIV-1 (HIV-1 [1]; Experiment 3, 100 μM): 0.823 OD; Day 10 RT HIV-1 (HIV-1 [1]; Experiment 3, 100 μM): 1.520 OD; reduction of HIV-1 infectivity, p24 antigen in cell supernatants (HIV-1 [2]; 300 μM, Table 6): ~100%; reduction (%) (HIV-1 [2]; Day 7 HIV-1, 300 μM): 99%; p24 (HIV-1 [2]; Day 7 HIV-1, 1000 μM): 273 pg/mL; p24 (OD) (HIV-1 [2]; Day 7 HIV-1, 1000 μM): 0.79 OD; reduction (%) (HIV-1 [2]; Day 7 HIV-1, 1000 μM): 100%; p24 (HIV-1 [2]; Day 14 HIV-1, 100 μM): 551000 pg/mL; p24 (OD) (HIV-1 [2]; Day 14 HIV-1, 100 μM): 1.48 × 10^3 OD; reduction (%) (HIV-1 [2]; Day 14 HIV-1, 100 μM): 61%; p24 (HIV-1 [2]; Day 14 HIV-1, 300 μM): 870 pg/mL; p24 (OD) (HIV-1 [2]; Day 14 HIV-1, 300 μM): 0.33 × 10^1 OD; reduction (%) (HIV-1 [2]; Day 14 HIV-1, 300 μM): 100%; p24 (HIV-1 [2]; Day 14 HIV-1, 1000 μM): 240 pg/mL; p24 (OD) (HIV-1 [2]; Day 14 HIV-1, 1000 μM): 0.11 × 10^1 OD; reduction (%) (HIV-1 [2]; Day 14 HIV-1, 1000 μM): 100%
2 | NCC(=O)N1CCC[C@H]1C(=O)NCC(N)=O [GPG-NH2, glycyl-prolyl-glycine amide] (H-Gly-Pro-Gly-NH2) | 0.068 | 0.074 | 0.090 | 0.143 | 1.527 | 2.398 | 0.239 | 0.692 | 2.970 | 1.107 | 0.894 | 0.095 | 0.177 | 0.034 | inhibited and/or prevented HIV-1 infection | 160 | 0.508 OD | 100 | 180 | 0.557 | Day 7 RT HIV-1 (HIV-1 [1]; Experiment 4, 100 μM): 0.150 OD; Day 10 RT HIV-1 (1:5) (HIV-1 [1]; Experiment 4, 100 μM): 0.033 OD; p24 (HIV-1 [2]; Day 7 HIV-1, 20 μM): 421 pg/mL; p24 (OD) (HIV-1 [2]; Day 7 HIV-1, 20 μM): 1.159 OD; reduction (%) (HIV-1 [2]; Day 7 HIV-1, 20 μM): 99%; reduction (%) (HIV-1 [2]; Day 7 HIV-1, 300 μM): 100%; p24 (HIV-1 [2]; Day 14 HIV-1, 20 μM): 40600 pg/mL; p24 (OD) (HIV-1 [2]; Day 14 HIV-1, 20 μM): 1.12 × 10^2 OD; reduction (%) (HIV-1 [2]; Day 14 HIV-1, 20 μM): 97%; p24 (HIV-1 [2]; Day 14 HIV-1, 100 μM): 663 pg/mL; p24 (OD) (HIV-1 [2]; Day 14 HIV-1, 100 μM): 1.76 OD; reduction (%) (HIV-1 [2]; Day 14 HIV-1, 100 μM): 100%; p24 (HIV-1 [2]; Day 14 HIV-1, 300 μM): 498 pg/mL; p24 (OD) (HIV-1 [2]; Day 14 HIV-1, 300 μM): 1.35 OD; reduction (%) (HIV-1 [2]; Day 14 HIV-1, 300 μM): 100%
